Source: article PMC3726336, “Product inhibition of cellulases studied with ^14C-labeled cellulose substrates” (Biotechnology for Biofuels, 2013)

Experiments:
TrCel6A = molecular target: T1, TrCel6A (Trichoderma reesei, UniProt P07987); experiment: Inhibition of hydrolysis of 14C-BMCC by TrCel6A; format: biochemical; settings: TrCel6A, 14C-BMCC, 50°C
T1 construct: TrCel6A was purified from the culture filtrate of Tr QM 9414 as described previously; made in house; host or cells: Trichoderma reesei QM 9414 culture filtrate (native producer)
T1 sequence (P07987 25-471): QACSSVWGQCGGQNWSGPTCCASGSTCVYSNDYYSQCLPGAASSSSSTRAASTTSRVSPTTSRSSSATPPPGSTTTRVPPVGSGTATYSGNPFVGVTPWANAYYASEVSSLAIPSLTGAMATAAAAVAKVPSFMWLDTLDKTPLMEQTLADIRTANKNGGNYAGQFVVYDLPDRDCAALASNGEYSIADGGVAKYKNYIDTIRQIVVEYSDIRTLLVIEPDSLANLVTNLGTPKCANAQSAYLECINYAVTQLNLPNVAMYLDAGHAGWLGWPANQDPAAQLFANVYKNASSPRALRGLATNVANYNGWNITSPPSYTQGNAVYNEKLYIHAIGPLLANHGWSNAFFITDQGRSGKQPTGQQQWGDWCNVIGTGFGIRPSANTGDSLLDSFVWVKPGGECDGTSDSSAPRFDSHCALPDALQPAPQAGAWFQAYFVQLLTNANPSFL
Description: (§1) Here, we characterized the cellobiose and glucose inhibition of TrCel6A and its thermophilic counterpart, CtCel6A [9, 63]. First, the cellobiose inhibition of the synergistic hydrolysis of ^14C-BC by TrCel6A and TrCel5A was studied (Figure 7A). As TrCel6A was less sensitive to cellobiose inhibition than TrCel7A, the contribution of the cellobiose released during hydrolysis was not significant, and an average (DCB/DCB=0) over all time points was used in plotting (DCB/DCB=0) versus [cellobiose] (Figure 7D). No significant systematic variation of DCB/DCB=0 depending on hydrolysis time was observed. As in the case of GH7 CBHs, the IC50 value was found using Equations 5 and 6. Because the IC50 value for synergistic hydrolysis (Table 3) was of the same order as the apparent Ki value reported for TrCel5A [31], we further tested the inhibition of individual TrCel6A. BC is not a good substrate for TrCel6A, but its acid-treated derivative, BMCC, is readily degraded by the enzyme. Therefore, we prepared ^14C-BMCC by the heterogeneous acid hydrolysis of ^14C-BC. […]
(§2) GH6 CBHs were assessed by observing the hydrolysis of ^14C-BMCC. ^14C-BMCC (0.25 g l^-1) was incubated (with shaking at 350 rpm) with CBH (0.25 μM) and N188BG (0.06 μM) in 50 mM sodium acetate buffer, pH 5.0, containing BSA (0.1 g l^-1). […]

CtCel6A = CtCel6A (Chaetomium thermophilum, UniProt G0SD43); experiment: Inhibition of hydrolysis of 14C-BMCC by CtCel6A; format: biochemical; settings: CtCel6A, 14C-BMCC, 50°C
Sequence of CtCel6A (G0SD43 entry or part of it): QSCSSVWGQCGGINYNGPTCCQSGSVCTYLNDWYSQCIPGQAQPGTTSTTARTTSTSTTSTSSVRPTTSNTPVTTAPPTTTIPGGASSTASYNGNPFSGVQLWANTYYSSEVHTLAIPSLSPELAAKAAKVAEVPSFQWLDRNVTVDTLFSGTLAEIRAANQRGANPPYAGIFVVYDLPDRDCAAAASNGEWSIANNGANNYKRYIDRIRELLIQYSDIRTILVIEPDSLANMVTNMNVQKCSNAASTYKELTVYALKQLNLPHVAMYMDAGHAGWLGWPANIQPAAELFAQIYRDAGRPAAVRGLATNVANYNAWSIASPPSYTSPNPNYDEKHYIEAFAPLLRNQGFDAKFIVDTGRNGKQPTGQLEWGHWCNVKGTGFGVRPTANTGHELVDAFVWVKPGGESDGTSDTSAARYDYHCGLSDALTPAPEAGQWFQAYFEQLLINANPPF
Description: as §1, §2

TrCel5A = molecular target: T2, TrCel5A (Trichoderma reesei, UniProt P07982); design: method as in PMID 23410927; settings: cited from earlier work
T2 construct: TrCel7B, TrCel5A, and TrCel12A were purified from the culture filtrate of Tr QM 9414; made in house; host or cells: Trichoderma reesei QM 9414 culture filtrate (native producer)
T2 sequence (P07982 22-418): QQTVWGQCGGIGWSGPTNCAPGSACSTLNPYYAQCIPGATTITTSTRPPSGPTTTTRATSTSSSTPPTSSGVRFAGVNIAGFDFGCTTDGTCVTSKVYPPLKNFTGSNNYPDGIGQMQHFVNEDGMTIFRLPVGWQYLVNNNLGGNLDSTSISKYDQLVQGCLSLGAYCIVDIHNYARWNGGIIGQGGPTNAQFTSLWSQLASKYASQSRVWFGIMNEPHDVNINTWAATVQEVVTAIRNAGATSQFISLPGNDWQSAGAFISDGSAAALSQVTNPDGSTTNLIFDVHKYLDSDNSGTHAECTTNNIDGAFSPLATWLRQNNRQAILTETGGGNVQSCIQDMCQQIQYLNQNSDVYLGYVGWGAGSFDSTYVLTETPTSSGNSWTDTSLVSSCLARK

GH7 CBHs = tested on: GH7 CBHs; design: method as in PMID 18512263; settings: MUL as substrate of the GH7 CBHs; cited from earlier work

Compound	times weaker inhibitor than cellobiose (TrCel6A)	times weaker inhibitor than cellobiose (CtCel6A)	inhibition by glucose (TrCel5A)	Km (GH7 CBHs) [µM]
OC[C@H]1OC(O)[C@H](O)[C@@H](O)[C@@H]1O (stereo partly shown) [glucose, Glucose]	approximately 10 times	approximately 10 times	not significantly inhibited	–
Cc1cc(=O)oc2cc(O[C@@H]3O[C@H](CO)[C@@H](O[C@@H]4O[C@H](CO)[C@H](O)[C@H](O)[C@H]4O)[C@H](O)[C@H]3O)ccc12 [MUL, 4-methylumbelliferyl-β-lactoside]	–	–	–	~300
